Measured values published in paper PMC7069944, “Amino acid levels determine metabolism and CYP450 function of hepatocytes and hepatoma cell lines” (Nature Communications, 2020).
Values joined by “and” are separate entries in the source; they are usually repeats but may differ in a detail not shown here. Equal values may be shown once.

Columns and labels:
HLC = experiment: Repeated-exposure DILI training compounds, resazurin conversion, HLC
Method: (§1) To evaluate the ability to predict hepatotoxicity, we adapted the differentiation assays to a 384-well format. […] As a readout, we evaluated cell viability by resazurin conversion and correlated the results to therapeutic doses (Cmax values).
(§2) PSCs were differentiated in a 384-well format. […] As a negative control, 41 wells were left untreated. HepG2 were seeded at 40,000 cells per well. […] Cells were fixed with 4% PFA. […] Drugs were administrated after 8 h of attachment.

HepG2 = experiment: Repeated-exposure DILI training compounds, resazurin conversion, HepG2
Method: as §1, §2

HC3X = experiment: Repeated-exposure DILI training compounds, resazurin conversion, HC3X; conditions: HC3X AAGLY D40
Method: as §1, §2

HC6X = experiment: Repeated-exposure DILI training compounds, resazurin conversion, HC6X
Method: as §1, §2

In the case of `CCN(CC)C(=O)/C(C#N)=C/c1cc(O)c(O)c([N+](=O)[O-])c1` [entacapone], the “Resazurin conversion, repeated exposure (Supplementary Figure 7D)” value (from here on “Resazurin conversion, repeated exposure”) (HLC; HLC AAGLY D40, 10 uM) is reported as 72 and 89.5 and 61.6 and 92.2 and 93.5 and 83.6, the “Resazurin conversion, repeated exposure” value (HLC; HLC AAGLY D40, 30 uM) is reported as 103.8 and 101.2 and 95.5 and 67.7 and 80.3 and 90.5 and the “Resazurin conversion, repeated exposure” value (HLC; HLC AAGLY D40, 50 uM) is reported as 106.7 and 75.7 and 96.1 and 56 and 97.2 and 93.3. For the same compound, the “Resazurin conversion, repeated exposure” value (HLC; HLC AAGLY D40, 100 uM) was 90.9 and 65.1 and 97.6 and 81.7 and 65.8 and 91.6, the “Resazurin conversion, repeated exposure” value (HLC; HLC AAGLY D40, 300 uM) was 81.3 and 79.9 and 79 and 69.8 and 111.3 and 89.9 and the “Resazurin conversion, repeated exposure” value (HLC; HLC AAGLY D40, 500 uM) was 97.3 and 87.8 and 100.8 and 81.9 and 90.2 and 84.4. The “Resazurin conversion, repeated exposure” value (HLC; HLC AAGLY D40, 1000 uM) was 107 and 95.5 and 86.2 and 93 and 108.2 and 101.5, the “Resazurin conversion, repeated exposure” value (HLC; HLC LDM D40, 10 uM) was 80.5 and 101.6 and 104.1 and 93.5 and 79.5 and 109 and the “Resazurin conversion, repeated exposure” value (HLC; HLC LDM D40, 30 uM) was 122.3 and 84.7 and 104.1 and 84.4 and 84 and 104. For the same compound, the “Resazurin conversion, repeated exposure” value (HLC; HLC LDM D40, 50 uM) was 80.6 and 88.8 and 112.5 and 118.1 and 65.6 and 98.1, the “Resazurin conversion, repeated exposure” value (HLC; HLC LDM D40, 100 uM) was 89.9 and 104.8 and 77.5 and 95.7 and 95.5 and 115.1 and the “Resazurin conversion, repeated exposure” value (HLC; HLC LDM D40, 300 uM) was 108.5 and 82.7 and 104.1 and 95.3 and 63.3 and 100.3. For the same compound, the “Resazurin conversion, repeated exposure” value (HLC; HLC LDM D40, 500 uM) was 94.1 and 111.1 and 84.2 and 118.9 and 108.7 and 108.4, the “Resazurin conversion, repeated exposure” value (HLC; HLC LDM D40, 1000 uM) was 72.7 and 101.3 and 78 and 89.4 and 85.4 and 124.1 and the “Resazurin conversion, repeated exposure” value (HepG2; HepG2 AAGLY D30, 10 uM) was 102.7 and 108.3 and 96.3 and 95.5 and 95.9 and 100.8. For the same compound, the “Resazurin conversion, repeated exposure” value (HepG2; HepG2 AAGLY D30, 30 uM) was 105.3 and 123.1 and 95.9 and 95.5 and 94.4 and 98.6, the “Resazurin conversion, repeated exposure” value (HepG2; HepG2 AAGLY D30, 50 uM) was 152.4 and 137.5 and 121.1 and 116.5 and 124.4 and 119.5 and the “Resazurin conversion, repeated exposure” value (HepG2; HepG2 AAGLY D30, 100 uM) was 127.9 and 149.8 and 134.1 and 127 and 120.4 and 132.2. The “Resazurin conversion, repeated exposure” value (HepG2; HepG2 AAGLY D30, 300 uM) was 69.6 and 78.3 and 68.3 and 72.6 and 71.7 and 76.3, the “Resazurin conversion, repeated exposure” value (HepG2; HepG2 AAGLY D30, 500 uM) was 44.9 and 57 and 46.8 and 54.7 and 52.8 and 66 and the “Resazurin conversion, repeated exposure” value (HepG2; HepG2 AAGLY D30, 1000 uM) was 37.4 and 37.7 and 35.2 and 41.1 and 43.2 and 46. For the same compound, the “Resazurin conversion, repeated exposure” value (HepG2; HepG2 AAGLY D30, 2000 uM) was 19.3 and 22.6 and 21.6 and 20.1 and 20.8, the “Resazurin conversion, repeated exposure” value (HepG2; HepG2 AAGLY D30, 4000 uM) was 12.5 and 14.6 and 13 and 12.9 and 13.1 and 20.4 and the “Resazurin conversion, repeated exposure” value (HepG2; HepG2 CTL D7, 10 uM) was 93.9. The “Resazurin conversion, repeated exposure” value (HepG2; HepG2 CTL D7, 30 uM) was 102.5 and 112.8 and 108.6 and 134.8 and 127 and 107.9, the “Resazurin conversion, repeated exposure” value (HepG2; HepG2 CTL D7, 50 uM) was 101.5 and 107.8 and 111.6 and 126.8 and 128.3 and 109 and the “Resazurin conversion, repeated exposure” value (HepG2; HepG2 CTL D7, 100 uM) was 95.8 and 101 and 100.7 and 120.3 and 125.1 and 104.1. For the same compound, the “Resazurin conversion, repeated exposure” value (HepG2; HepG2 CTL D7, 300 uM) was 67.5 and 62.9 and 68.7 and 80.5 and 91.5 and 70.1, the “Resazurin conversion, repeated exposure” value (HepG2; HepG2 CTL D7, 500 uM) was 36 and 31.8 and 34.4 and 55.7 and 53 and 36.2 and the “Resazurin conversion, repeated exposure” value (HepG2; HepG2 CTL D7, 1000 uM) was 9.5 and 6.9 and 7.9 and 10.8 and 9.3 and 8.4. For the same compound, the “Resazurin conversion, repeated exposure” value (HepG2; HepG2 CTL D7, 2000 uM) was 3.6 and 3.2 and 3.7 and 3.8 and 3.4, the “Resazurin conversion, repeated exposure” value (HepG2; HepG2 CTL D7, 4000 uM) was 2.7 and 2 and 2.5 and 2.9 and 3 and the “Resazurin conversion, repeated exposure” value (HC3X; 10 uM) was 105.5 and 90.3 and 90.2 and 88.2 and 71.2 and 75.6. The “Resazurin conversion, repeated exposure” value (HC3X; 30 uM) was 115.8 and 62.8 and 93.9 and 99.3 and 81.1 and 63.6, the “Resazurin conversion, repeated exposure” value (HC3X; 50 uM) was 82.1 and 69.4 and 93.5 and 81.3 and 74.4 and 55.8 and the “Resazurin conversion, repeated exposure” value (HC3X; 100 uM) was 49 and 46.9 and 84.4 and 61.2 and 50.7 and 51.6. For the same compound, the “Resazurin conversion, repeated exposure” value (HC3X; 500 uM) was 18.2 and 17.1 and 16.8 and 16 and 16.9 and 13.4, the “Resazurin conversion, repeated exposure” value (HC3X; 1000 uM) was 8.7 and 10.7 and 12.7 and 12.4 and 7.5 and the “Resazurin conversion, repeated exposure” value (HC3X; 2000 uM) was 4 and 3.7 and 3.3 and 2.8 and 3. The “Resazurin conversion, repeated exposure” value (HC3X; 4000 uM) was 2.3 and 2.9 and 3.3 and 2.8 and 2.6 and 2.4, the “Resazurin conversion, repeated exposure” value (HC6X; HC6X AAGLY D40, 10 uM) was 116.9 and 68.5 and 106.9 and 88.2 and 63 and 119.9 and the “Resazurin conversion, repeated exposure” value (HC6X; HC6X AAGLY D40, 30 uM) was 103.2 and 75.2 and 84.6 and 107.4 and 73.5 and 104.8. For the same compound, the “Resazurin conversion, repeated exposure” value (HC6X; HC6X AAGLY D40, 50 uM) was 71.4 and 61.4 and 89.5 and 66.5 and 69.6 and 76.8, the “Resazurin conversion, repeated exposure” value (HC6X; HC6X AAGLY D40, 100 uM) was 43.6 and 55 and 60.5 and 66.1 and 44.9 and 64.9 and the “Resazurin conversion, repeated exposure” value (HC6X; HC6X AAGLY D40, 300 uM) was 37.1 and 36.3 and 44.1 and 42.3 and 33.5 and 37.5. The “Resazurin conversion, repeated exposure” value (HC6X; HC6X AAGLY D40, 500 uM) was 24.4 and 21.6 and 32.3 and 32.9 and 27.4 and 25.1, the “Resazurin conversion, repeated exposure” value (HC6X; HC6X AAGLY D40, 1000 uM) was 25.5 and 25.3 and 37.2 and 22.8 and 23.6 and 21 and the “Resazurin conversion, repeated exposure” value (HC6X; HC6X AAGLY D40, 2000 uM) was 12 and 11.8 and 15.1 and 12.5 and 11.4 and 12.9. The “Resazurin conversion, repeated exposure” value (HC6X; HC6X AAGLY D40 Remove dox, 10 uM) was 62.8 and 75.4 and 93.9 and 104.7 and 88.6 and 79.3, the “Resazurin conversion, repeated exposure” value (HC6X; HC6X AAGLY D40 Remove dox, 30 uM) was 86.2 and 86.6 and 84.6 and 85 and 82.3 and the “Resazurin conversion, repeated exposure” value (HC6X; HC6X AAGLY D40 Remove dox, 100 uM) was 87.4 and 81.5 and 70.5 and 95.4 and 102 and 63.6. For the same compound, the “Resazurin conversion, repeated exposure” value (HC6X; HC6X AAGLY D40 Remove dox, 300 uM) was 89.2 and 80.7 and 67.2 and 48.2 and 75.7 and 47.5 and the “Resazurin conversion, repeated exposure” value (HC6X; HC6X AAGLY D40 Remove dox, 2000 uM) was 43.7 and 44 and 38.6 and 66.6 and 63.4 and 64.5.
